Here are results for one compound from US20230011800A1, “[…] CHIP FOR […] AND TOXICITY ON NERVE, AND USE THEREOF” (CHA UNIVERSITY INDUSTRY-ACADEMIC COOPERATION FOUNDATION, priority 2019, published 2023).

Entries after “also recorded” stand apart in the source; their conditions may differ.

Holding throughout (type): cell-based
The test system of data set [1] is neurons differentiated from human stem cells (hPSCs) (Neurosight-S). The data set is described as follows: MeHg neurotoxicity on neurons cultured alone in the biomimetic nerve chip, Calcein-AM live cell imaging. As to the method:
Neurons differentiated from human stem cells (hPSCs) were secured through neurons (Neurosight-S) by NEXEL. A stock was thawed and injected immediately into the chip. The neurons were prepared at an appropriate concentration for injection of 15×10^4 cells/6 μL, loaded into the neuron inlet included in the nerve chip of the present invention, and injected into the neuron chamber passing through the neuron channel. The bottom of the neuron chamber was coated with Matrigel, which was three times more concentrated than usual, for stable attachment in the chip, and the neurons were cultured in Neurosight-S medium supplemented with Supplement (100×) for 3 days during which neurites can be formed.
(§1) The injection of cells was conversely conducted. Human stem cell-derived neurons (Neurosight-S) were preferentially injected, wherein the neurons were prepared at an appropriate concentration for injection of 15×10^4 cells/6 μL, load into the neuron inlet, and injected into the neuron chamber. Human stem cell-derived astrocytes were prepared at an appropriate concentration for injection of 15×10^4 cells/6 μL, and nozzles of syringes each carrying 30 μL were connected to the astrocyte inlets, and the astrocytes were injected into the two astrocyte chambers by using a syringe pump.
(§2) It was assessed whether neurotoxicity can be evaluated by a noticeable biomimetic nerve chip of the present invention in which an in vivo environment similar to physiological characteristics of the nervous system was constructed. First, methylmercury chloride (MeHg), a representative environmental toxic substance known to pass through the brain barrier regardless of a structure of the brain barrier and to have neurotoxicity, was selected as a toxic substance for treatment. The neurotoxicity evaluation was conducted by treating a chip having only neurons cultured and a chip having neurons and astrocytes co-cultured, with MeHg at various concentrations (0 μM, 1 μM, 5 μM, 10 μM) for 3 hours and then examining the cell response changes according to the MeHg time and concentration through real-time live cell imaging and immunocytochemistry, and then the functionality of the biomimetic nerve chip as a drug toxicity evaluation platform was assessed (FIGS. 8 to 10).
Most of the neurons in the control group formed neurite networks while having intact cell bodies and neurites.
The MeHg treatment concentrations were set to 1 μM, 5 μM, and 10 μM, and similarly, the viability of neurons was examined in real time through Calcein-AM.

For data set [2] the test system is unchanged. Kind of data set: MeHg neurotoxicity on neurons cultured alone in the nerve chip, immunostaining with Tuj1 and MAP2. The conditions noted are these: 1 μM, 5 μM and 10 μM MeHg, 3 hours. As to the method: as §2
The cell types can be distinguished by morphological characteristics of cells, but Calcein-AM targets all living cells regardless of the type of cells and thus cannot clearly identify the types of cells. The present inventors re-examined whether the neurons were damaged at the same extent by MeHg, through immunostaining using Tuj1 and MAP2 antibodies targeting only neurons (FIG. 8C).

Data set [3] concerns astrocytes differentiated from human stem cells (hPSCs). Kind of data set: MeHg toxicity on astrocytes in the nerve chip, immunostaining with GFAP and S100B. The note with it: 3 hours. As to the method: as §2
On the basis of the assertion that this S100B increase is associated with CNS damage, immunostaining was performed using GFAP and S100B, which were used as markers for brain damage due to metal-induced neurotoxicity, in order to identify astrocytes and examine the response of astrocytes in the MeHg detection (FIG. 9C).

The test system of data set [4] is neurons co-cultured with astrocytes (human stem cell-derived). The data set is described as follows: MeHg neurotoxicity on neurons co-cultured with astrocytes in the nerve chip (astrocyte neuroprotection), Calcein-AM and MAP2. As to the method: as §1, §2
Finally, it was examined whether there was a neuroprotective function from the neurotoxicity of MeHg depending on the presence or absence of astrocytes inside the biomimetic nerve chip. MeHg treatment was conducted under two conditions in which […] were cultured alone and neurons and astrocytes were co-cultured, and the cell viability was evaluated in real time according to the time and concentration changes by using Calcein-AM (FIGS. 10A to 10C). […]

The test system of data set [5] is astrocytes differentiated from human stem cells (hPSCs). The data set is described as follows: MeHg toxicity on astrocytes cultured in the nerve chip, Calcein-AM live cell imaging.
Text: Astrocytes, differentiated from human stem cells (hPSCs), were secured by direct differentiation. Human stem cells (hPSCs) were maintained through culture and passage by using TeSr-E8 medium in a Matrigel-coated culture dish, and for differentiation into neurons, neural progenitor cells (NPCs) were first prepared. The stem cell colonies were detached using […], and then embryoid bodies (EBs) were formed using DMEM/F12 medium containing 20% knock out serum replacement, 1% nonessential amino acids, 55 μM β-mercaptoethanol, 10 μM SB431542, and 5 μM DMH1, and then again attached to a Matrigel-coated culture dish to form neural rosettes in DMEM/F12 medium containing 1% N2 supplement, […] insulin, and 20 ng/mL basic fibroblast growth factor. Only the center of the rosettes was separated using a thinly drawn Pasteur pipette, and then cultured in DMEM/F12 medium containing 1% N2 supplement, 20 ng/mL basic fibroblast growth factor, and 20 ng/mL epidermal growth factor to secure NPCs. The secured NPCs were again attached to a Matrigel-coated culture dish at a density of 2.8×10^3 cells/cm, and cultured in DMEM/F12 medium containing 1% N2 supplement, 2% vitamin A-removed B27 supplement, 10 ng/mL bone morphogenetic protein-4, 10 ng/mL ciliary neurotrophic factor, and 10 ng/mL leukemia inhibitory factor to thereby obtain finally differentiated astrocytes. […]
as §2, with “First, methylmercury chloride (MeHg), a representative environmental toxic substance known to pass through the brain barrier regardless of a structure of the brain barrier and to have neurotoxicity, was selected as a toxic substance for treatment.” left out

Setting [6] is: as the concentration of MeHg increased (1, 5, 10 μM).
The mark [7] stands for this setting: in the presence of astrocytes, MeHg 1, 5, 10 μM, 3 hours.

For `[CH3][Hg][Cl]` [MeHg, methylmercury chloride], the “viability and morphology of neurons (neurites), Calcein-AM” value in data set [1] (1 μM MeHg, after 3 hours) was “some neurites endured neurotoxicity of MeHg without damage to maintain the state thereof”. In data set [1] (5 μM MeHg, after 3 hours), the “viability and morphology of neurons (neurites), Calcein-AM” value is “the neurites almost completely disappeared, leaving only fragmented fragments and only a form of cell bodies; also recorded: neurites disappeared and only the cell bodies remained”. In addition, the “viability and morphology of neurons (neurites), Calcein-AM” value in data set [1] (5 μM MeHg, until 2 hours after treatment) is given as “the neurites maintained the state thereof with deterioration little by little without any significant change”. For the same compound, the “Calcein-AM signal of neurons over time” value in data set [1] (10 μM MeHg, 1-hour intervals for 3 hours) is “most of the Calcein-AM signals started to rapidly decrease 2 hours after MeHg treatment”. Also, the “viability and morphology of neurons (neurites, cell bodies), Calcein-AM” value in data set [1] (10 μM MeHg, after 3 hours) is listed as “even the fluorescence signal of the remaining cell bodies was greatly reduced”. Moreover, the “damage to neurons, immunostaining Tuj1 and MAP2” value in data set [2] is listed as “the damage to cells increased as the concentration increased”. Moreover, in data set [3] (setting [6]), the “GFAP expression signal in astrocytes” value is listed as “the GFAP signal decreased” and the “S100B expression signal in astrocytes” value was “the S100B signal increased”. Further, in data set [3] (astrocytes, MeHg 1, 5, 10 μM), the “viability of astrocytes, immunostaining” value was “the viability of astrocytes was not changed”. In data set [4] (setting [7]), the “Calcein-AM signal of neurons according to concentration” value was “maintained without any decrease” and the “MAP2 signal of neurons according to concentration” value is listed as “maintained without any decrease”. For the same compound, the “viability and morphological changes of neurons over time, Calcein-AM” value in data set [4] (neurons co-cultured with astrocytes, 10 μM MeHg, until 3 hours after treatment) is on record as “no significant changes were observed, except for a few strands of neurites that partially disappeared”. The “degree of morphological change of astrocytes according to concentration, Calcein-AM” value in data set [5] (MeHg 1, 5, 10 μM, 3 hours) is on record as “no significant difference in the degree of morphological change due to cell aggregation regardless of the concentration”. Also, the “cell viability of astrocytes, Calcein-AM” value in data set [5] (MeHg 1, 5, 10 μM, up to 3 hours) was “no decrease in cell viability was observed”. For the same compound, the “morphological changes of astrocytes over time, Calcein-AM” value in data set [5] (MeHg, 1-hour intervals for 3 hours) is “morphological changes of astrocytes due to cell aggregation were observed over time”.
